{"source": "paper PMC7588042", "key": {"[1]": {"assay": "double amidation of dimethyl bis(oxyacetate) diester with alpha,omega-diamine (aminolysis of methyl ester, no additive), 1 bar, 168 h", "conditions": "the molecule shown is the open-chain precursor, MeOH, 30.0 mM, 25.0 °C, 2 steps, scale: mol% diamide"}, "[2]": {"assay": "double amidation of dimethyl bis(oxyacetate) diester with alpha,omega-diamine (aminolysis of methyl ester, no additive), 10 kbar, 24 h", "conditions": "the molecule shown is the open-chain precursor, MeOH, 30.0 mM, 25.0 °C, 2 steps, scale: mol% diamide"}}}
{"smiles": "COC(=O)COc1ccccc1OCC(=O)NCCOCCN", "note": "[3{1,1}]", "values": [{"measurement": "ring closure, monomer to dimer", "setting": "[1]; 15-membered ring", "value": 99.5}, {"measurement": "ring closure, monomer to dimer", "setting": "[2]; 15-membered ring", "value": 95}]}
{"smiles": "COC(=O)COc1ccc(OCC(=O)NCCCOCCCCOCCCN)cc1", "note": "[3{3,2}]", "values": [{"measurement": "ring closure, monomer to dimer", "setting": "[1]; 24-membered ring", "value": 85}, {"measurement": "ring closure, monomer to dimer", "setting": "[2]; 24-membered ring", "value": 81}]}
{"smiles": "COC(=O)COc1cccc(OCC(=O)NCCOCCN)c1", "note": "[3{2,1}]", "values": [{"measurement": "ring closure, monomer to dimer", "setting": "[1]; 16-membered ring", "value": 77}, {"measurement": "ring closure, monomer to dimer", "setting": "[2]; 16-membered ring", "value": 68.5}]}
{"smiles": "COC(=O)COc1ccccc1OCC(=O)NCCCOCCOCCOCCCN", "note": "[3{1,3}]", "values": [{"measurement": "ring closure, monomer to dimer", "setting": "[1]; 23-membered ring", "value": 88}, {"measurement": "ring closure, monomer to dimer", "setting": "[2]; 23-membered ring", "value": 76}]}
{"smiles": "COC(=O)COc1cccc(OCC(=O)NCCCOCCCCOCCCN)c1", "note": "[3{2,2}]", "values": [{"measurement": "ring closure, monomer to dimer", "setting": "[1]; 23-membered ring", "value": 85}, {"measurement": "ring closure, monomer to dimer", "setting": "[2]; 23-membered ring", "value": 76.5}]}
{"smiles": "COC(=O)COc1ccccc1OCC(=O)NCCCOCCCCOCCCN", "note": "[3{1,2}]", "values": [{"measurement": "ring closure, monomer to dimer", "setting": "[1]; 22-membered ring", "value": 85}, {"measurement": "ring closure, monomer to dimer", "setting": "[2]; 22-membered ring", "value": 78}]}
{"smiles": "COC(=O)COc1ccc(OCC(=O)NCCCOCCOCCOCCCN)cc1", "note": "[3{3,3}]", "values": [{"measurement": "ring closure, monomer to dimer", "setting": "[1]; 25-membered ring", "value": 89}, {"measurement": "ring closure, monomer to dimer", "setting": "[2]; 25-membered ring", "value": 79}]}
{"smiles": "COC(=O)COc1cccc(OCC(=O)NCCCOCCOCCOCCCN)c1", "note": "[3{2,3}]", "values": [{"measurement": "ring closure, monomer to dimer", "setting": "[1]; 24-membered ring", "value": 95}, {"measurement": "ring closure, monomer to dimer", "setting": "[2]; 24-membered ring", "value": 78}]}
{"smiles": "COC(=O)COc1ccc(OCC(=O)NCCOCCN)cc1", "note": "[3{3,1}]", "values": [{"measurement": "ring closure, monomer to dimer", "setting": "[1]; 17-membered ring", "value": 33}, {"measurement": "ring closure, monomer to dimer", "setting": "[2]; 17-membered ring", "value": 16.5}]}
